In one data set the target is T1, human CB1 receptor (Homo sapiens, UniProt P21554).
T1 construct: expressed in transfected cells
Put plainly: Human CB1 receptor binding assay ([3H]CP55940, membranes of CB1R-expressing CHO cells). To be noted: [3H]CP55940 0.5 nM.

A further data set concerns the target T2, human CB2 receptor (Homo sapiens, UniProt P34972).
T2 construct: The coding region of human CB2 receptor (CB2R) cDNA (Munro etc, Nature, 1993, 365, 61-65) was inserted into the mammalian expression vector; expressed in transfected cells
The experiment in a line: Human CB2 receptor binding inhibition ([3H]CP55940, membranes of CB2R-expressing CHO cells).

T1 sequence (P21554 whole entry): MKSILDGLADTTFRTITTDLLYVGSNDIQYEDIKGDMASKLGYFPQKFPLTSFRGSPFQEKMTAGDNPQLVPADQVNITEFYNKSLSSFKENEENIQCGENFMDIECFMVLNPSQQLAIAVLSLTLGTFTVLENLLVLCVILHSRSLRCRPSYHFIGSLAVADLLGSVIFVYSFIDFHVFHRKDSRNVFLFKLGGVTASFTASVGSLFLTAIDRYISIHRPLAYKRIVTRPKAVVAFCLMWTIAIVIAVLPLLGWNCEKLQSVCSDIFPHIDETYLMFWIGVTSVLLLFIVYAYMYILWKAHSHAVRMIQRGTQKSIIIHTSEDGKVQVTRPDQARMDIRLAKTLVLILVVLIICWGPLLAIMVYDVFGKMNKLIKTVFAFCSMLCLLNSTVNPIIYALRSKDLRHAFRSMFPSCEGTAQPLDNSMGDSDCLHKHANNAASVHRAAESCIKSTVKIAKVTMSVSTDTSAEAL
T2 sequence (P34972 whole entry): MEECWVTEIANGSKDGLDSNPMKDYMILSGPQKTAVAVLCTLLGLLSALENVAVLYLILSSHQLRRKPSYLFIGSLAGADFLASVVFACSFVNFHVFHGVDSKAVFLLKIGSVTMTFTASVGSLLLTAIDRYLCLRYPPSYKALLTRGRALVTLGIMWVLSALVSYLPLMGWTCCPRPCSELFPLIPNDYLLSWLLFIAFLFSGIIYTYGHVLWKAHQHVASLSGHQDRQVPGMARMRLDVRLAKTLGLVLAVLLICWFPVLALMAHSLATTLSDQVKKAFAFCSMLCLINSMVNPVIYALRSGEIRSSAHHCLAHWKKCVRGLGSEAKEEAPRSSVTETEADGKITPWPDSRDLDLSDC
Procedure for human CB1 receptor: Receptor binding assay was performed by incubating the membranes with each test compound and [^3H]CP55940 (at a final concentration of 0.5 nM: NEN Life Science Products) in the assay buffer (50 mM Tris-HCl, 1 mM EDTA, 3 mM MgCl2, pH 7.4) containing 0.5% bovine serum albumin (BSA) for 2 h at 25° C. The incubation mixture was filtered through 1% polyethylenimine-treated GF/C glass filter and washed with 50 mM Tris-HCl (pH 7.4) containing 0.1% BSA. The radioactivity was then counted with a liquid scintillation counter.
(§1) For the receptor binding assay of human CB1 receptor (CB1R), the stable CB1R-expressing CHO cells were prepared as described above, and the binding assay was performed using their membrane fractions.
Procedure for human CB2 receptor: The crude membrane fractions were prepared from the CB2R-expressing CHO cells. Receptor binding assay was performed by incubating the membranes with each test compound and [^3H]CP55940 (at a final concentration of 0.5 nM: NEN Life Science Products) in the assay buffer (50 mM Tris-HCl, 1 mM EDTA, 3 mM MgCl2, pH 7.4) containing 0.5% bovine serum albumin (BSA) for 2 h at 25° C. The incubation mixture was filtered through 1% polyethylenimine-treated GF/C glass filter and washed with 50 mM Tris-HCl (pH 7.4) containing 0.1% BSA. The radioactivity was then counted with a liquid scintillation counter.
as §1

The term Ki denotes the equilibrium dissociation constant of an inhibitor or competing ligand from its target. Turning to `CCCCn1c(C)c(C)cc(NC(=O)c2ccccc2C)c1=O` [Example 5-006], the affinity at human CB1 receptor, expressed as Ki, was 390 nM. This lies in the sub-micromolar range.
Broadly, the melting point is the temperature of the solid-liquid transition. In turn, `Cc1ccc(Oc2nc3ccccc3o2)c(=S)n1C` showed a melting point of 245 to 247 °C.
Compound `CCCCn1c(C)c(C)cc(NC(=O)c2ccccc2Cl)c1=O` [Example 5-005] came in with an inhibition constant Ki on human CB1 receptor of 391 nM. This counts as sub-micromolar.
`CCn1c(C)c(C)cc(C(=O)NCc2ccccc2)c1=O` displayed a melting point of 117 °C.
Same read-out and setting: next, `CCCCn1c(C)c(C)cc(NC(=O)c2ccc(F)cc2)c1=O`: 129 to 130 °C.
For the compound `CCCCn1c2c(cc(C(=O)NCCc3ccc(N)cc3)c1=O)CCCC2` [Example 4-003], the figures for the Ki on human CB2 receptor and at human CB1 receptor were 44 nM and 680 nM, respectively.

For the origin of these results see patent US8088924B2, “Pyridone derivatives having a binding activity to the cannabinoid type 2 receptor” (Shionogi & Co., Ltd., priority 2000, dated 2012).
